Assay results: patent publication US8519127B2, “Cyclic glycyl-2-allyl proline and its use in treatment of peripheral neuropathy” (priority 2003, dated 2013)

Legend:
cerebellar neurons = assay: Cerebellar microexplants exposed to glutamate and 3-nitropropionic acid; live neurons with neurites counted; type: cell-based, rat; conditions: for number of cells having neurites: administered simultaneously with glutamate, FIG. 1 / FIG. 2; for glutamate-induced neurotoxicity: low doses (cG-2AllylP: 100 pm to 10 nm)
Procedure: Cover slips were placed into a large Petri dish and washed in 70% alcohol for 5 minutes, then washed with Millipore H2O. The cover slips were air dried, and coated with Poly-D-Lysine (1 mg/ml stock solution in PBS, 90-100 μl) for 2 hours at 34° C.
Postnatal day 8 Wistar rats were used for the study. The rats were sacrificed and placed in ice for 1 minute, decapitated and the cerebellum removed and placed on ice. Cerebellum tissue was placed in 1 ml of 0.65% glucose-supplemented PBS (10 μl 65% stock D (+)glucose/1 ml PBS) in a large Petri dish, chopped up into smaller sections and triturated with a 1 ml insulin syringe via a 23 G (0.4 mm) needle, and then squirted back into the glucose solution in the large Petri dish. The tissue was sieved through (125 μm pore size gauze) and centrifuged (2 minutes at 60 g) twice to exchange the medium into serum-free BSA-supplemented START V medium (Biochrom, Germany). The second centrifugation step was done with 1 ml of START V medium. The microexplants were reconstituted into 500 μl of START V medium and put on ice.
Two hours after PDL-coating, the slides were washed with Millipore H2O and air dried. Each slide was placed into a small Petri dish (diameter: 35 mm) and 40 μl of START V/cell suspension was added. The tissue was incubated for 2 hours at 34° C. (settlement period). START V-medium (1 ml) was then added to the Petri dish and cultivated at 34° C. in the presence of 5% CO2 in air at 100% humidity for 48 hours.
For the study, certain explant cultures were exposed to vehicle (PBS) only. In the first study (Study 1) 10 μl of toxin 1 (L-glutamate-100 mM in Millipore water; final concentration: 1 mM) and 10 μl of toxin 2 (3-nitropropionic acid-50 mM-pH 7-in Millipore water, final concentration: 0.5 mM) was applied simultaneously with the drug to be tested ([…]). In each case, the drugs were left in contact with the explants for the duration of the study.
After explants were exposed to drugs for the study period, cells were then rinsed in PBS and then fixed in increasing concentrations of paraformaldehyde (500 μl of 0.4% PFA was applied; then 1.2% PFA; then 3% PFA and finally 4% PFA (each fixation step: 2-3 minutes). Finally, the microexplants were rinsed in PBS.
Neurons in the explants were then evaluated for morphology (presence of neurites) and counted as live cells per microscopic field. Four fields displaying highest cell density were counted per cover slip and the data presented as mean±standard error of the mean (SEM); n=4 each. Statistical significance was evaluated by using the non-paired Student's t-test.

[1] = tested on: rats exposed to hypoxic-ischemic injury (HI); assay: Hypoxic-ischemic injury (modified Levine model), histological tissue damage score; type: in vivo, rat
Procedure: To determine whether cG-2AllylP might prevent neuronal injury in response to stroke, cardiac arterial bypass graft surgery (CABG) or other hypoxic insults, a series of studies were carried out in rats that had been exposed to hypoxic-ischemic injury (HI). Adult rats (Wistar, 280-310 g, male) were used. The modified Levine model preparation and experimental procedures were used (Rice et al, 1981, Ann. Neural.: 9: 131-141; Guan et al J., 1993, Cereb. Blood Flow Metab.: 13(4): 609-16). These procedures in brief, consist of an HI injury induced by unilateral carotid artery ligation followed by inhalational asphyxia in the animals with an implanted lateral ventricular cannula. A guide cannula was stereotaxically placed on the top of the dura 1.5 mm to the right of the mid-line and 7.5 mm anterior to the interaural zero plane under halothane anaesthesia. The right carotid artery was double ligated two days after the cannulation. After 1 hour recovery from the anaesthesia, each of the rats were placed in an incubator where the humidity (90±5%) and temperature (31°±0.5° C.) were controlled for another hour, then exposed to hypoxia (6% oxygen) for 10 min, The animals were kept in the incubator for an additional 2 hours before treatment.
Nine pairs of rats were treated intracerebral ventricularly (icy) with either cG-2AllylP (2 ng) or its vehicle (normal saline) 2 hours after hypoxic-ischemic insult. Rats in each group were simultaneously infused with cG-2AllylP or its vehicle under light anaesthesia (1.5% halothane) 2 hours after the insult. […]
Coronal sections 8 μm in thickness were cut from the striatum, cerebral cortex and hippocampus and were stained with thionin and acid fuchsin. The histological outcome was assessed at three levels: (1) the mid level of the striatum, (2) where the completed hippocampus first appeared and (3) the level where the ventral horn of the hippocampus just appears. The severity of tissue damage was scored in the striatum, cortex and the CA1-2, CA3, CA4 and dentate gyrus of the hippocampus. […]

microglia = conditions: response to hypoxia-ischemia in rat model; cited from earlier work
diabetic rats = assay: Streptozotocin-induced diabetic neuropathy, tactile allodynia (von Frey hairs); type: in vivo, rat; conditions: 3-30 mg/kg p.o. 1/day for 14 days; STZ-diabetic rats
Procedure: Rats (225-250 g) are rendered diabetic by an i.p. injection of streptozotocin (STZ; 75 mg/kg). A diabetic condition is confirmed in each rat 10 days later by measurement of tail vein blood glucose levels. Only rats with a final blood glucose level>13.8 mM are considered diabetic and are included in the experiment.
Hyperglycemic, diabetic rats are dosed with cG-2-allylP (3-30 mg/kg, p.o. 1/day) from day 14 until day 28 (for a total of 14 days of treatment). Glucose measurements are taken on day 14 (pre-dose), day 21, day 28 and day 42.
Rats are tested for tactile allodynia on days 14 (pre-dose), and on days 16, 21, 28, 35 and 42 using van Frey hairs. Rats are tested for responsivity to von Frey hairs with calibrated bending forces of 1.5-15 g, to deliver punctate mechanical stimuli of varying intensities. Filaments exerting a force above 15 g are not used. Starting with the lowest filament force (1.5 g), von Frey hairs are applied to the plantar surface of the hind paw, with sufficient force to cause slight bending against the paw, and held for 1 s. Each stimulation is applied five times with an inter-stimulus interval of 5-10 s. Care is taken to stimulate random locations on the plantar surface. A positive response is noted if the paw was robustly and immediately withdrawn. […]

[2] = tested on: cleaved caspase-3 protein; conditions: rats exposed to hypoxia/ischaemia; cited from earlier work
[3] = tested on: pyridoxine-intoxicated rats; assay: Pyridoxine-induced peripheral neuropathy: body weight and beam walk errors; type: in vivo, rat; conditions: for body weight (percentage of baseline weight): pyridoxine 400 mg/kg i.p. b.i.d. days 1-8, vs vehicle, FIG. 5
Procedure: […] Sprague-Dawley rats were habituated to walk across a wooden beam (4 cm diameter, 175 cm long, circular cross-section) over a training period of 8 days prior to initiating neuropathic toxicity treatment. Animals were weighed on the day prior to pyridoxine injection (mean body weight 270 g) and were randomized into treatment groups as follows: vehicle control (distilled water, n=16), 3 mg/kg cG-2-allylP (n=16) or 30 mg/kg cG-2-allylP (n=16). All groups received pyridoxine (400 mg/kg i.p.) 2/day for 8 days (days 1-8) and either vehicle or cG-2-allylP (3 or 30 mg/kg, p.o.) 1/day on days 1-10. Body weights were monitored throughout treatment and until study day 28. Beam walking was assessed on days 0 (baseline), 14, 21, and 28. Beam walk errors were assessed according to the method of Callizot (Callizot et al, Pyridoxine-Induced Neuropathy in Rats: a Sensory neuropathy that Responds to 4-methylcatechol, Neurobiol. Dis. 8:626-635 (2001.)) incorporated herein fully by reference. Each rat was scored for 7 steps taken in traversing the beam, as follows: 1=hind-paw placed on the top of the beam (normal); 2=paw contacted the lateral line of the beam; 3=paw overlapping the lateral line on the beam; 4=rat unable to place its feet on the beam. Rats that could walk across the beam therefore recorded a maximum functional deficit score of 28. Rats unable to take 7 steps along the beam scored 30, while rats unable to balance on the beam at all scored 32.
Two-way analysis of variance (ANOVA) was conducted on beam walk performance data, with time and treatment as variables, applying Bonferroni post-hoc tests to assess individual treatment condition differences. Statistical significance was assumed if p<0.05.

Row | Structure (SMILES) | number of cells having neurites (cerebellar neurons) | glutamate-induced neurotoxicity (cerebellar neurons) | loss of cerebellar neurons having neurites (cerebellar neurons; glutamate 1 mM, compared to vehicle-treated controls, FIG. 1) [%] | tissue damage score ([1]; 2 ng icv 2 hours after hypoxic-ischemic insult, histology 5 days after injury, vs vehicle, p<0.001, FIG. 3) | neuronal damage scores ([1]; 2, 4, 20, 100 ng icv 2 hours after insult, all sites and doses other than 100 ng in striatum, FIG. 4) | efficacy by brain region ([1]; regions with progressive injury such as dentate gyrus and cerebral cortex, FIG. 4) | activation of microglia (microglia) | pain threshold in response to von Frey hair pressure to hind paws (diabetic rats) | expression of cleaved caspase-3 protein in the cerebral cortex [2] | body weight (percentage of baseline weight) ([3]; 3 mg/kg p.o. 1/day days 1-10) | body weight (percentage of baseline weight) ([3]; 3 mg/kg p.o. 1/day days 1-10, listed as cG-2allylP) | body weight (percentage of baseline weight) ([3]; 30 mg/kg p.o. 1/day days 1-10) | body weight (percentage of baseline weight) ([3]; 30 mg/kg p.o. 1/day days 1-10, listed as cG-2allylP) | beam walking errors ([3]; 30 mg/kg p.o. days 1-10, test days 14, 21, 28, p<0.05 vs vehicle, FIG. 6)
1 | C[C@@]12CCCN1C(=O)C1(CCCC1)NC2=O [Cyclic cyclopentyl-G-2MeP, (8aS)-Methyl-spiro[cyclopentane-1,3(4H)-tetrahydropyrrolo[1,2-a]pyrazine]-1,4(2H)-dione] | significantly increased the number of cells having neurites | significant decrease in glutamate-induced neurotoxicity | – | – | – | – | – | – | – | – | – | – | – | –
2 | N[C@@H](CCC(=O)O)C(=O)O [Glutamate, L-glutamate, reference compound] | – | – | ~85 | – | – | – | – | – | – | – | – | – | – | –
3 | C=CC[C@]12CCCN1C(=O)CNC2=O [cG-2-allylP, (8aS)-Allyl-hexahydropyrrolo[1,2-a]pyrazine-1,4-dione] | significantly increased the numbers of cells having neurites in a dose-dependent manner | significant decrease in glutamate-induced neurotoxicity | – | significantly reduced the tissue damage in each brain region examined | lessened the neural damage effects of hypoxia/ischemia | increased efficacy in brain regions that experienced progressive injury associated with delayed cell death | reduce activation of microglia | increase the pain threshold | decreased expression of cleaved caspase-3 protein in the cerebral cortex | significantly attenuated the effect of pyridoxine on body weight on test day 9 | greater gain of body weight than in animals treated with pyridoxine alone | significantly attenuate pyridoxine-mediated body weight loss on days 9, 14, 21 and 28 | greater gain of body weight than in animals treated with pyridoxine alone | effectively prevented pyridoxine-induced beam walking errors
